Assay results published in publication PMC10005104 (Molecules, 2023).
Where “and” joins values, the source holds several entries; their conditions need not be identical. Equal values may be shown once. Where a name gives a salt, the structure may show the parent alone. Read-outs that look alike come from different tables or passages of the source. Marks after values point to notes of the source that are not given here.

What was measured:
[1] = target: T1, hMAO B (Homo sapiens, UniProt P27338); experiment: fluorometric Amplex red MAO assay; type: biochemical; settings: read-out: hMAO B % inh
T1 construct: purchased Sigma-Aldrich (Steinheim, Germany)
T1 sequence (P27338 1-520): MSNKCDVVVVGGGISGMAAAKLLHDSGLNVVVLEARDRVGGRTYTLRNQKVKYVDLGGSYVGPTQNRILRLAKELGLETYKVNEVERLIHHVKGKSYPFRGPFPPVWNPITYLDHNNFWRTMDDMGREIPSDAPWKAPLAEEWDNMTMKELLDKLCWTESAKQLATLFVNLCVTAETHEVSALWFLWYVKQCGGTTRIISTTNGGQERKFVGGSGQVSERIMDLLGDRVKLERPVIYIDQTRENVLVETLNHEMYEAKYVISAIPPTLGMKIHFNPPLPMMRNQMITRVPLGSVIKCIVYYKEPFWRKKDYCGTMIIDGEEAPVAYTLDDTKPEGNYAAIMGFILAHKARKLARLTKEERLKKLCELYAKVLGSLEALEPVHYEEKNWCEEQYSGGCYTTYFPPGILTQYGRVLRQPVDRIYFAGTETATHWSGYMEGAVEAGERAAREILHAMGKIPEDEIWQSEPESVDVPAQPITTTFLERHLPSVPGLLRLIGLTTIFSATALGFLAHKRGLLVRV
Method: The ability to inhibit MAO B was estimated by a fluorescence assay, as previously described.
The enzyme was purchased from Sigma-Aldrich (Steinheim, Germany). Screening was carried out at a concentration of 1 micromolar. Inhibitor activity was measured in the presence of p-tyramine.
Data are expressed as mean values of two independent experiments.

[2] = target: T2, BuChE from equine serum (eqBuChE) (Equus caballus, UniProt P81908); experiment: biochemical; settings: for inhibition at 10 µM: read-out: eqBuChE % inh
T2 construct: BuChE from equine serum (eqBuChE); purchased Sigma-Aldrich (Steinheim, Germany); host or cells: equine serum
T2 sequence (P81908 whole entry): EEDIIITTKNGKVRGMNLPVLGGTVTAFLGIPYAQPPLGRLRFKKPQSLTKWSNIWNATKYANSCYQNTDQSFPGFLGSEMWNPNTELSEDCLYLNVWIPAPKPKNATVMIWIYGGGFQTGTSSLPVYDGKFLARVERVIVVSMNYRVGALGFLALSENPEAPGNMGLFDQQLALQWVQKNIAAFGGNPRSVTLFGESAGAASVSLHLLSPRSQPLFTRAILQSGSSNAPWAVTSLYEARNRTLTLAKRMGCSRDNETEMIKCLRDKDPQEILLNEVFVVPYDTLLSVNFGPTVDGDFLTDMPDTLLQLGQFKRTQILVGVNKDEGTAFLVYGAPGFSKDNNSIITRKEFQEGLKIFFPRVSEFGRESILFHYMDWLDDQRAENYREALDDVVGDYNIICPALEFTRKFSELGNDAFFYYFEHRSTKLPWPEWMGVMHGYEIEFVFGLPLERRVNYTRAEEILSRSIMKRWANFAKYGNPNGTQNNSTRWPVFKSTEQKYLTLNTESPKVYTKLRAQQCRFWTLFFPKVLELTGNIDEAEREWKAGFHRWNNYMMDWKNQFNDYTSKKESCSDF
Method: AChE from electrophorus electricus and BuChE from equine serum were purchased from Sigma-Aldrich (Steinheim, Germany). The whole procedure was performed as previously described, using a modified Ellman method in 96-well microplates. […] Initial screening was performed for compounds at a concentration of […]. The percentage of inhibition was calculated by comparison with a blank sample (100% enzyme activity). […] Each concentration was measured in triplicate. IC50 values were calculated using GrapPad Prism 9 software (GraphPad Software, San Diego, CA, USA). Data are expressed as mean ± SEM.

[3] = target: T3, AChE from electrophorus electricus (eeAChE) (Electrophorus electricus, UniProt O42275); experiment: modified Ellman colorimetric assay, eeAChE; type: biochemical; settings: for inhibition at 10 µM: read-out: eeAChE % inh; for IC50: three independent experiments, read-out: eeAChE IC50 Mean ± SEM
T3 construct: purchased Sigma-Aldrich (Steinheim, Germany)
T3 sequence (O42275 24-633): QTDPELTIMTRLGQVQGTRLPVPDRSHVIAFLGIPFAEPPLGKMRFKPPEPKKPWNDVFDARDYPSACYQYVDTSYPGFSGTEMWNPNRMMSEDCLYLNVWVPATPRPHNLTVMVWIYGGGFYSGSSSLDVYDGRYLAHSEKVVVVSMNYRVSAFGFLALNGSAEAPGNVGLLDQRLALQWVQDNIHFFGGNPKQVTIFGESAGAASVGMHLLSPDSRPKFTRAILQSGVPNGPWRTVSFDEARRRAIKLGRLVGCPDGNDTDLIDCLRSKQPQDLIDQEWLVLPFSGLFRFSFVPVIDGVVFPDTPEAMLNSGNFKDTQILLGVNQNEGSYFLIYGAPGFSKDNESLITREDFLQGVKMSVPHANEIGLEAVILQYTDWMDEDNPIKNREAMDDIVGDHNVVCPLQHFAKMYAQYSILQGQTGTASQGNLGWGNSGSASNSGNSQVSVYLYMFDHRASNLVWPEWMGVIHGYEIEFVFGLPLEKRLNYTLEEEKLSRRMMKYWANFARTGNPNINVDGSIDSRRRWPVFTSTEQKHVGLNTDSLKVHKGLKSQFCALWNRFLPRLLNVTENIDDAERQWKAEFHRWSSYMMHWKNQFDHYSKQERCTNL
Method: All compounds were tested at a concentration of 10 µM in a modified colorimetric method first described by Ellman et al. in the 1960s, using AChE from electrophorus electricus (eeAChE) and BuChE from equine serum (eqBuChE). […]. All results are collected in Table 1. […]. […] No correlation was observed between inhibitory activity and hH3R affinity. The most interesting compounds were among the azepane derivatives. […]. AChE from electrophorus electricus and BuChE from equine serum were purchased from Sigma-Aldrich (Steinheim, Germany). The whole procedure was performed as previously described, using a modified Ellman method in 96-well microplates. Absorbance was measured using an EnSpire multimode microplate reader (PerkinElmer, Waltham, MA, USA) at 412 nm. Initial screening was performed for compounds at a concentration of […]. The percentage of inhibition was calculated by comparison with a blank sample (100% enzyme activity). For compounds showing >70% inhibition of enzyme activity, IC50 values were determined, measuring absorbance at six different inhibitor concentrations. Each concentration was measured in triplicate. IC50 values were calculated using GrapPad Prism 9 software (GraphPad Software, San Diego, CA, USA). Data are expressed as mean ± SEM.

[4] = target: T4, human H3 receptor (hH3R) (Homo sapiens, UniProt Q9Y5N1); experiment: [3H]-Nα-methylhistamine radioligand binding assay, HEK293 cell membranes expressing hH3R; settings: hH3R Ki Mean [CI 95%], HEK293 cells expressing human H3 receptor; at least three independent repetitions
T4 construct: expressed in transfected cells; host or cells: HEK293
T4 sequence (Q9Y5N1 whole entry): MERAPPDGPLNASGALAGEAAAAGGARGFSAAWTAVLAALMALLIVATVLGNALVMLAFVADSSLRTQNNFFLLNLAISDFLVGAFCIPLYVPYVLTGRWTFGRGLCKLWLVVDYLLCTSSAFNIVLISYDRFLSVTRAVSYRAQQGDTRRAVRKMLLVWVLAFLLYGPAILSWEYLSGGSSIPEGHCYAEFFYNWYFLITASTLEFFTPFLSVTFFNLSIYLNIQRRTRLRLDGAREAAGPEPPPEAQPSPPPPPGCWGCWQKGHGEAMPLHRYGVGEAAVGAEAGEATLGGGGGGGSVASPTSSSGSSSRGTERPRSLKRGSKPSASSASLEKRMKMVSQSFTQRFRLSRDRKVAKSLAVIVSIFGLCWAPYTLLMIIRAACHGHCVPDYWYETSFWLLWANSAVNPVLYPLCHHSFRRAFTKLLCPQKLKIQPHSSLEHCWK
Method: The affinity for hH3R was assessed in vitro in radioligand binding assays, using membrane preparations of HEK293 cells stably expressing hH3R, while [^3H]-N^α-methylhistamine was used as a radioligand. The exact procedure was described previously by Kottke et al.. Novel compounds were tested as oxalic acid salts. […]. The activity depended on all three variables, i.e., the presence of an amine group, the chain length (five or six carbons), and the type of substituent in the phenyl ring. With regard to the change in the amine moiety, it can be observed that, regardless of the length of the chain and the type of R substituent, the activity of the derivatives was arranged in the following order: 3-methylpiperidine ≥ piperidine ≥ azepane >> 4-metylpiperidine derivatives. Regarding the length of the carbon chain, compounds bearing the pentylene chain are characterized by a higher binding affinity to the receptor than hexylene derivatives (exception: 10). […]
H3R receptor affinity assays were performed in the radioligand competition assay. Human H3R was stably expressed in HEK293 cells. [^3H]-N^α-Methylhistamine (KD = 3.08 nM) was used as the radioligand. The compounds used in the experiments were dissolved in DMSO. The precise experiment was performed as previously described. Complete curves were obtained for at least seven approximate concentrations, in at least three independent experiments, performed at least in duplicate. Ki values were calculated using the Cheng–Prusoff equation. Results are presented as mean values with confidence intervals (CI) (95%).

[5] = test system: SH-SY5Y cells; experiment: MTS assay in SH-SY5Y cells; type: cell-based; settings: at 50 µM, percentage of control (vehicle-treated cells)
Method: (§1) . After the indicated time, the MTS reagent was added directly to the cultured cells for 1 h, and then the absorbance at 490 nm was read. […] The results are presented in Table 2 and Figures S1 and S2 (Supplementary Materials).
(§2) The hepatoma cell line HepG2 (ATCC® HB-8065TM) and SH-SY5Y CRL-2266 neuroblastoma cell line were used to evaluate the toxicity of tested compounds. Tests were conducted as described previously. The CellTiter 96® Aqueous Non-Radioactive Cell Proliferation Assay was purchased from Promega (Madison, WI, USA). […]. […] Each experiment was performed twice, in triplicate.

[6] = MTS assay, statements on both cell lines together; type: cell-based, human; settings: human, HepG2 hepatoma cells and SH-SY5Y neuroblastoma cells; HepG2 48 h, SH-SY5Y 24 h; up to 50 µM; read-out: cell viability at the highest doses tested
[7] = test system: HepG2 cells; experiment: MTS assay in HepG2 cells; type: cell-based; settings: Homo sapiens, HepG2; MTS assay, 48 h of exposure
Method: as §1, §2

[8] = MTS assay in HepG2 cells; type: cell-based; settings: human, HepG2 hepatoma cells; at 50 µM, percentage of control (vehicle-treated cells); read-out: HepG2 Cell Viability (%)
Method: as §1, §2

[9] = target: hH3R; settings: cited from earlier work
[10] = target: T3, AChE from electrophorus electricus (eeAChE); settings: at 10 µM; cited from earlier work
[11] = at 1 µM, two independent experiments

| Compound | inhibition at 1 µM [1, 11] [%] | inhibition at 10 µM [2] [%] | inhibition at 10 µM [3] [%] | Ki [4] | further results |
| --- | --- | --- | --- | --- | --- |
| CC(=O)c1ccc(OCCCCCN2CCCCC2)cc1 [Compound 2, 1-(4-((5-(Piperidin-1-yl)pentyl)oxy)phenyl)ethan-1-one hydrogen oxalate] | 2 | 25 | 45 | < 50 nM and 34 nM |  |
| CC(=O)c1ccc(OCCCCCCN2CCCCC2)cc1 [Compound 3, 1-(4-((6-(Piperidin-1-yl)hexyl)oxy)phenyl)ethan-1-one hydrogen oxalate] | 3 | 23 | 67 | 75 nM |  |
| CCC(=O)c1ccc(OCCCCCN2CCCCC2)cc1 [Compound 4, 1-(4-((5-(Piperidin-1-yl)pentyl)oxy)phenyl)propan-1-one hydrogen oxalate] | 16 | 32 | 49 | < 50 nM and 24 nM |  |
| CCC(=O)c1ccc(OCCCCCCN2CCCCC2)cc1.O=C(O)C(=O)O [Compound 5, 1-(4-((6-(Piperidin-1-yl)hexyl)oxy)phenyl)propan-1-one hydrogen oxalate] | 22 |  |  | < 50 nM and 41 nM | SH-SY5Y Cell Viability (%) [5]: No toxic effect; IC50 ([2]; three independent experiments, read-out: eqBuChE IC50 Mean ± SEM): 1350 ± 40 nM; viability at 50 µM [6]: > 50%; IC50 [3]: 4790 ± 190 nM; IC50 [7]: 158000 nM; viability at 48 h, 50 µM [8]: 69.5 ± 2.14% |
| CC(=O)c1ccc(OCCCCCCN2CCCC(C)C2)cc1.O=C(O)C(=O)O (stereo not shown) [Compound 7, 1-(4-((6-(3-Methylpiperidin-1-yl)hexyl)oxy)phenyl)ethan-1-one hydrogen oxalate] | 0 | 18 |  | 72 nM | SH-SY5Y Cell Viability (%) [5]: No toxic effect; viability at 50 µM [6]: > 50%; IC50 [3]: 1750 ± 50 nM; IC50 [7]: 148000 nM; viability at 48 h, 50 µM [8]: 72.4 ± 4.54% |
| CCC(=O)c1ccc(OCCCCCCN2CCCC(C)C2)cc1 (stereo not shown) [Compound 9, 1-(4-((6-(3-Methylpiperidin-1-yl)hexyl)oxy)phenyl)propan-1-one hydrogen oxalate] | 12 | 66 | 68 | < 50 nM and 38 nM |  |
| CC(=O)c1ccc(OCCCCCN2CCC(C)CC2)cc1 [Compound 10, 1-(4-((5-(4-Methylpiperidin-1-yl)pentyl)oxy)phenyl)ethan-1-one hydrogen oxalate] | 0 | 43 | 60 | 120 nM |  |
| CC(=O)c1ccc(OCCCCCCN2CCC(C)CC2)cc1.O=C(O)C(=O)O [Compound 11, 1-(4-((6-(4-Methylpiperidin-1-yl)hexyl)oxy)phenyl)ethan-1-one hydrogen oxalate] | 0 | 49 |  | 106 nM | SH-SY5Y Cell Viability (%) [5]: No toxic effect; viability at 50 µM [6]: > 50%; IC50 [3]: 2650 ± 110 nM; IC50 [7]: 223000 nM; viability at 48 h, 50 µM [8]: 77.5 ± 0.94% |
| CCC(=O)c1ccc(OCCCCCCN2CCC(C)CC2)cc1.O=C(O)C(=O)O [Compound 13, 1-(4-((6-(4-Methylpiperidin-1-yl)hexyl)oxy)phenyl)propan-1-one hydrogen oxalate] | 1 | 65 |  | 58 nM | SH-SY5Y Cell Viability (%) [5]: No toxic effect; viability at 50 µM [6]: > 50%; IC50 [3]: 2560 ± 80 nM; IC50 [7]: 105000 nM; viability at 48 h, 50 µM [8]: 64.7 ± 4.4% |
| CC(=O)c1ccc(OCCCCCN2CCCCCC2)cc1 [Compound 14, 1-(4-((5-(Azepan-1-yl)pentyl)oxy)phenyl)ethan-1-one hydrogen oxalate] | 37 | 63 | 63 | 52 nM |  |
| CC(=O)c1ccc(OCCCCCCN2CCCCCC2)cc1 [Compound 15, 1-(4-((6-(Azepan-1-yl)hexyl)oxy)phenyl)ethan-1-one hydrogen oxalate] | 6 | 68 | 67 | 79 nM |  |
| Cc1ccc2oc(-c3ccc(OCCCCCCN4CCCCCC4)cc3)cc(=O)c2c1 [III] |  |  |  |  | Ki [9]: 160 nM |
| O=c1c2ccccc2oc2ccc(OCCCCCN3CCCCCC3)cc12 [IV] |  |  |  |  | Ki [9]: 170 nM |
| Clc1ccc(CCCOCCCN2CCCCC2)cc1 [pitolisant] |  |  |  |  | eeAChE % inh [10]: (3%) ^g |
| C#CCN[C@@H]1CCc2ccccc21 [rasagiline, reference compound] |  |  |  |  | inhibition at 1 µM [1]: 100% |
